Source: ChEMBL document CHEMBL3769348, “A structureactivity relationship study of the positive allosteric modulator LY2033298 at the M4muscarinic acetylcholine receptor” (Medchemcomm, 2015)
Active and inactive are the calls of the source. The calls are words filed in the database; no cut-off is given here.

How the values were obtained:
Assay type in all cases: cell-based
[1] = target: T1, Muscarinic acetylcholine receptor M4 (Homo sapiens) (UniProt P08173); test: Allosteric modulation of human M4 mAChR expressed in FIpIn-CHO cells assessed as ERK1/2 phosphorylation after 6 mins by Alphascreen assay in the presence of ACh
T1 sequence (whole entry): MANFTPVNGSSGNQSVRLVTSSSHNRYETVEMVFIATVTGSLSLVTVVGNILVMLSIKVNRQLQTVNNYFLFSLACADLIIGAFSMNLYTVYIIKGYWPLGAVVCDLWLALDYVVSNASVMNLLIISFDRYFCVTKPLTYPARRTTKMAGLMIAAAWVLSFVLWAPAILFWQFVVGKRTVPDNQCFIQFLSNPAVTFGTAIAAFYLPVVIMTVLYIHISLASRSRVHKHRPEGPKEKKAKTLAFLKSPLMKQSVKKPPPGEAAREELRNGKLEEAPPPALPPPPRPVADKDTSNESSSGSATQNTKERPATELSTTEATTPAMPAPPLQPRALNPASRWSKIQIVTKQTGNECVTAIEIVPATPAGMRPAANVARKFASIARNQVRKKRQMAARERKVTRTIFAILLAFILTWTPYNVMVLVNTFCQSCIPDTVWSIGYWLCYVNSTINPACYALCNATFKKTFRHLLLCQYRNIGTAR

[2] = target: T1, Muscarinic acetylcholine receptor M4 (Homo sapiens); test: Intrinsic activity at human M4 mAChR expressed in FIpIn-CHO cells assessed as ERK1/2 phosphorylation after 6 mins by Alphascreen assay in the presence of ACh
[3] = target: T1, Muscarinic acetylcholine receptor M4 (Homo sapiens); test: Allosteric modulation of human M4 mAChR expressed in FIpIn-CHO cells assessed as ERK1/2 phosphorylation measured overall cooperativity after 6 mins by Alphascreen assay
[4] = target: T1, Muscarinic acetylcholine receptor M4 (Homo sapiens); test: Displacement of [3H]NMS from human M4 mAChR expressed in FIpIn-CHO cells assessed as ligand affinity after 4 hrs by scintillation counting method in the presence of ACh
[5] = target: T2, Muscarinic acetylcholine receptor M4 (Homo sapiens, UniProt P08173); test: Displacement of [3H]NMS from human M4 mAChR expressed in FIpIn-CHO cells after 4 hrs by scintillation counting method in the presence of ACh
T2 sequence (P08173 whole entry): T1 sequence (whole entry)

| Compound | Kb [1] | pKb [1] | Intrinsic activity [2] | log(IA) [2] | Activity [3] | log(activity) [3] | Activity [4] | log(activity) [4] | Ki [5] |
| --- | --- | --- | --- | --- | --- | --- | --- | --- | --- |
| CCNC(=O)c1sc2nc(OC)c(Cl)c(C)c2c1N | 200 nM | 6.73 | 8.7 | 0.94 | 69.2 | 1.84 | 562 | 2.75 | 4300 nM |
| Cc1nc2sc(C(=O)NC3CC3)c(N)c2c(C)c1Cl | 400 nM | 6.45 | 12.9 | 1.11 | 77.6 | 1.89 |  |  |  |
| CCCCCCNC(=O)c1sc2nc(OC)c(Cl)c(C)c2c1N | 200 nM | 6.7 | 0.4 | -0.35 | 1.3 | 0.13 |  |  |  |
| Cc1nc(C)c2c(N)c(C(=O)NC3CC3)sc2n1 | 12500 nM | 4.9 | 3.1 | 0.49 | 14.1 | 1.15 |  |  |  |
| COc1nc2sc(C(=O)NC3CC3)c(N)c2c(C)c1Cl | 400 nM | 6.41 | 8.5 | 0.93 | 240 | 2.38 | 1740 | 3.24 | 400 nM |
| COc1cc(C)c2c(N)c(C(=O)NC3CC3)sc2n1 | 2800 nM | 5.55 | 4.6 | 0.66 | 28.8 | 1.46 |  |  |  |
| CCCCCCOc1nc2sc(C(=O)NC3CC3)c(N)c2c(C)c1Cl | 40 nM | 7.42 | 0.2 | -0.75 | 2 | 0.3 |  |  |  |
| Cc1cc(C)c2c(N)c(C(=O)NC3CC3)sc2n1 |  |  | 5.9 | 0.77 | 52.5 | 1.72 |  |  |  |
| CCCCNC(=O)c1sc2nc(OC)c(Cl)c(C)c2c1N | 500 nM | 6.29 | 2.8 | 0.44 | 15.5 | 1.19 | 123 | 2.09 | 3200 nM |

More lines, now with the values ahead:

| Kb [1] | pKb [1] | Intrinsic activity [2] | log(IA) [2] | Activity [3] | log(activity) [3] | Activity [4] | log(activity) [4] | Ki [5] | Compound |
| --- | --- | --- | --- | --- | --- | --- | --- | --- | --- |
| 800 nM | 6.1 | 9.3 | 0.97 | 61.7 | 1.79 | 95.5 | 1.98 | 200 nM | CCOc1nc2sc(C(=O)NC3CC3)c(N)c2c(C)c1Cl |
| inactive | inactive | inactive | inactive | inactive | inactive |  |  |  | CCCC(=O)Nc1c(C(=O)NC2CC2)sc2nc(OC)c(Cl)c(C)c12 |
| inactive | inactive | inactive | inactive | inactive | inactive |  |  |  | COc1nc2sc(C(=O)NC3CC3)c(NC(C)=O)c2c(C)c1Cl |
| inactive | inactive | inactive | inactive | inactive | inactive |  |  |  | CCCCCC(=O)Nc1c(C(=O)NC2CC2)sc2nc(OC)c(Cl)c(C)c12 |
| 200 nM | 6.81 | 0.3 | -0.51 | 2.5 | 0.4 | 22.4 | 1.35 | 2700 nM | CCCCOc1nc2sc(C(=O)NC3CC3)c(N)c2c(C)c1Cl |
| 200 nM | 6.66 | 2.3 | 0.37 | 9.3 | 0.97 | 269 | 2.43 | 1700 nM | COc1nc2sc(C(=O)NC3CC3)c(N)c2c(C)c1I |
| 300 nM | 6.52 | 17.8 | 1.25 | 81.3 | 1.91 | 347 | 2.54 | 520 nM | COc1nc2sc(C(=O)NC3CC3)c(N)c2c(C)c1Br |
